In publication PMC11065314, “Identification of compounds that cause axonal dieback without cytotoxicity in dorsal root ganglia explants and intervertebral disc cells with potential to treat pain via denervation” (PLOS ONE, 2024):
Several values for one entry are separate records, joined by “and”; a condition that tells them apart may be missing. Equal entries are not always repeated. Structures can show the parent of a compound that is named as a salt.

Key:
[1] = DRG cytotoxicity assessment using LDH assay; format: cell-based, rat; details: female, rat, rat dorsal root ganglion (DRG) explants, 100 nM, female rat DRG explant, single well
Protocol: (§1) 500 nM Imy and 10 nM Vcr were excluded from female rat DRG experiments while 500 nM Vcr and 1 mM Pyr were excluded from male rat DRG experiments due to insufficient DRG replicates with axon outgrowth. DRG media was removed from wells and transferred into a 96-well plate for pre-treat LDH cytotoxicity assay (see Methods below). 300 μL of media treatment solutions or solvent control solutions were added to wells. DRGs were incubated with treatment solutions for three days, and brightfield images at 4X magnification were taken using BioTek Cytation1 Plate Imager (Agilent) before treatment (day -1) and on days 1, 2 and 3 after treatment. DRGs from adult male and female rats were tested to determine if sex can affect axonal dieback. In total, 12 to 15 DRG replicates per group by sex harvested from n = 3 male and n = 3 female rats were tested.
(§2) Lactate dehydrogenase (LDH) is a cytosolic enzyme present in all cells. Dissociated rat DRG neurons release LDH during tunicamycin-induced apoptosis. […] An ideal axonal dieback compound should cause axonal degeneration without neurotoxicity. was assessed on day 3 post-treat and normalized to pre-treat levels to account for variability in DRG size and growth and calculated as a percentage of cytotoxicity to lysed DRGs (positive control). 50 μL of pre-treatment and post-treatment media were aliquoted in duplicates into a 96-well plate. LDH activity in the media post-treat was assessed using the CyQUANT^TM LDH Cytotoxicity Assay Kit (Thermo Fisher Scientific, C20301) according to the manufacturer’s instructions. Briefly, 50 μL of Substrate Mix was added to each well and then incubated at room temperature for 30 minutes protected from light. 50 μL of Stop solution was added to each well and the absorbance at 490 nm and 680 nm was measured using a microplate reader (Agilent). LDH activity of each DRG was calculated as the difference between absorbance at 490 nm after subtracting the background absorbance at 680 nm. As a positive control, 13 female rat DRGs and 15 male rat DRGs were treated for three days with Lysis buffer solution, provided in the kit, diluted 1:5.45 in DRG media. The percentage of cytotoxicity was calculated following Eq 2. Pre-treat levels of LDH activity were subtracted from post-treat LDH activity in each DRG to remove baseline LDH activity then percentage of cytotoxicity compared to positive control lysed DRG LDH activity was calculated. Sex is a biological factor that can influence neurotoxicity. Thus, percentage of cytotoxicity of total 11 to 14 DRG replicates per group by sex from n = 3 male and n = 3 female rats were tested.
(§3) Cytotoxicity(%)=(PosttreatLDHactivity)−(PretreatLDHactivity)/(MaximumLDHactivityfromlysedDRGs)−(PretreatLDHactivity)×100% (2)

rat DRG explants = experiment: DRG cytotoxicity assessment using LDH assay; format: cell-based; details: for Cytotoxicity (%): female rat DRG explant, single well
Protocol: as §1, §2, §3

adult rat DRG neurons = system: adult rat DRG neurons; set-up: method as in PMID 32388569; details: below 1000 nM; cited from earlier work

CC[C@]1(O)C[C@H]2CN(CCc3c([nH]c4ccccc34)[C@@](C(=O)OC)(c3cc4c(cc3OC)N(C=O)[C@H]3[C@@](O)(C(=O)OC)[C@H](OC(C)=O)[C@]5(CC)C=CCN6CC[C@]43[C@@H]65)C2)C1 [Vcr, vincristine sulfate]
cytotoxicity at 3 days, 0.1 µM [1]: 15.5% | Cytotoxicity (%) (rat DRG explants; 1 nM, 0.001 µM): 6.189% and 9.7112% and 4.38% | Percentage of DRG cytotoxicity, Mean (SD) (rat DRG explants; 10 nM, day 3, male rat DRGs only, relative to lysed DRGs): 7.02 (4.36) % | Percentage of cytotoxicity less than lysed DRGs (rat DRG explants; 100 nM, day 3): 89.8% | Cytotoxicity (%) (rat DRG explants; 100 nM, 0.1 µM): 11.901% | Cytotoxicity (%) (rat DRG explants; 500 nM, 0.5 µM): 7.521% and 12.2818% and 15.3285% | Overall cytotoxicity lower compared to lysed DRGs (rat DRG explants; all concentrations tested, day 3): at least 88% | Cytotoxicity (adult rat DRG neurons): does not induce cytotoxicity
